pIC50: −log10 of the molar value. Like-named read-outs stand apart in the source and are kept apart here.
Tests used:
[1] = from C=Cc1nn(C2CCCCO2)c2ccc(-c3cnn(C)c3OCCN(C)C(=O)c3c(I)c(Br)nn3C)cc12; cc_pd bond; Pd(OAc)2, NaHCO3, TBAC; DMF; 54.0 mM; 140.0 °C; 1.5 h
FLT3 = FLT3 (Homo sapiens (Human), UniProt P36888); assay: HotSpot radiometric kinase assay (Reaction Biology); type: biochemical
FLT3-ITD [2] = molecular target: FLT3-ITD (Homo sapiens, UniProt P36888, ITD); assay: as above; type: biochemical
Chain of FLT3-ITD (Homo sapiens, UniProt P36888, ITD) (P36888 whole entry, looked up, change not shown): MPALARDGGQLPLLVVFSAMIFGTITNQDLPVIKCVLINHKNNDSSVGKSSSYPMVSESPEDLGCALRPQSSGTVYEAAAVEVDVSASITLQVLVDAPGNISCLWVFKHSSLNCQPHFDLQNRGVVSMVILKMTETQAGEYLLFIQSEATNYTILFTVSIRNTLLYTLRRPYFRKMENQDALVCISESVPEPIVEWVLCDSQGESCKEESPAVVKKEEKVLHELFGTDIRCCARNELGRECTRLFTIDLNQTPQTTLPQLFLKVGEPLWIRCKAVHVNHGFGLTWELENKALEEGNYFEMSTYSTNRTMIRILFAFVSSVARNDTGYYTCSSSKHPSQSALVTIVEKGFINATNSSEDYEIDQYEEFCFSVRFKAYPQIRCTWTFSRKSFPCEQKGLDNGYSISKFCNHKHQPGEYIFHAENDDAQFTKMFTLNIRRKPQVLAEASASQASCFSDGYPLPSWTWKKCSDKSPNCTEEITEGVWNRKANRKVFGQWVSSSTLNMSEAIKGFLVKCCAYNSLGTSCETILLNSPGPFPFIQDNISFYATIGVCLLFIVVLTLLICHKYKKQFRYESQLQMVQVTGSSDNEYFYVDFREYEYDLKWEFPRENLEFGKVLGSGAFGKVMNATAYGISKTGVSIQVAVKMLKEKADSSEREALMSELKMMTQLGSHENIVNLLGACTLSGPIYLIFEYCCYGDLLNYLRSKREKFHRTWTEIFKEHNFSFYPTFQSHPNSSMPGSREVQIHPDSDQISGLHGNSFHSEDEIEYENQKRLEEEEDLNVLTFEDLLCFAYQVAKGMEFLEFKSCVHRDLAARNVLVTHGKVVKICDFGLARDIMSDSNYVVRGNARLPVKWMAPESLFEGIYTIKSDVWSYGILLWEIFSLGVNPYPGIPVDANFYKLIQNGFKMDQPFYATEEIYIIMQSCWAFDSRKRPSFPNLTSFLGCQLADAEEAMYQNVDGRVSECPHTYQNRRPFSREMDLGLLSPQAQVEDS

MV-4-11 cells = assay: MV-4-11 cell proliferation assay (CellTiter-Glo 2.0); type: cell-based; conditions: MV-4-11, 384-well, 11-dose dilution series, read-out: IC50, inhibition of MV-4-11 cell proliferation
Experimental: MV-4-11 cell line was purchased from ATCC and maintained in RPMI medium supplemented with 10% fetal bovine serum and 100 U/mL of penicillin/streptomycin. One thousand MV-4-11 cells/50 μl per well were seeded in white 384-well plate, followed by treatment with indicated compounds in a 11-dose dilution series. Cell proliferation was measured using CellTiter-Glo 2.0 luciferase-based ATP detection assay (Promega, Madison, WI) following the manufacturer's protocol. Plates were then read on a TECAN Sparks multimode microplate reader. Data was analyzed using GraphPad Prism 9 (GraphPad Software, San Diego, CA) to obtain IC50 values.

CLK1 = CLK1 (Homo sapiens (Human), UniProt P49759); assay: CLK kinase activity assay (ADP-Glo); type: biochemical
Chain of CLK1 (P49759 whole entry): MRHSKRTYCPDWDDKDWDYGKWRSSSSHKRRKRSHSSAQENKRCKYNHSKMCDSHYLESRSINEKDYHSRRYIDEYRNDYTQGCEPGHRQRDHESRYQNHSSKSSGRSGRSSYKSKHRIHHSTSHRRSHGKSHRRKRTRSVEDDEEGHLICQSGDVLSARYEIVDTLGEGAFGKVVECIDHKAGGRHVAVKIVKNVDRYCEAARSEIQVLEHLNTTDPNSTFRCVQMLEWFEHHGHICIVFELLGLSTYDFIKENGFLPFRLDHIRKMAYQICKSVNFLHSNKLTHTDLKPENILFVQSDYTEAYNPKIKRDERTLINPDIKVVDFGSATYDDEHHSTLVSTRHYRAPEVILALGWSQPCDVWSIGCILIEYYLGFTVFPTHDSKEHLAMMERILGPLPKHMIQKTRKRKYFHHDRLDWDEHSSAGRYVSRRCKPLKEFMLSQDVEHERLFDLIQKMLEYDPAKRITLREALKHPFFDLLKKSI
Experimental: (§1) Kinase protein and substrate were pre-diluted in the HEPES assay buffer (100 mM HEPES, pH 7.5, 0.01% Triton X-100, 0.1% BSA, 5 mM MgCl2, 1 mM DTT, 10 μM Sodium Orthovanadate, 10 μM Beta-Glycerophosphate) dispensed into 384 well plate (5 μL per well). Control samples (0%-inhibition in the absence of inhibitor, DMSO only) and 100%-inhibition (in the absence of enzyme) were assembled in replicates of six and were used to calculate %-inhibition in the presence of compounds. Test compounds were added to the protein samples by acoustic dispensing (Labcyte Echo550). Concentration of DMSO was equalized to 1% in all samples. Reactions were initiated by addition of ATP by acoustic dispensing (Labcyte Echo550) and incubated according to assay specific incubation time. After incubation, 5 uL of Promega ADP-Glo reagent was added and incubated for 40 minutes. After 40 minutes, 10 uL of Promega kinase detection reagent was added. After 10 min of incubation with Kinase detection reagent, the luminescence was read on microplate reader (Biotek Synergy).

CLK4 = CLK4 (Homo sapiens (Human), UniProt Q9HAZ1); assay: CLK kinase activity assay (ADP-Glo); type: biochemical
Chain of CLK4 (Q9HAZ1 whole entry): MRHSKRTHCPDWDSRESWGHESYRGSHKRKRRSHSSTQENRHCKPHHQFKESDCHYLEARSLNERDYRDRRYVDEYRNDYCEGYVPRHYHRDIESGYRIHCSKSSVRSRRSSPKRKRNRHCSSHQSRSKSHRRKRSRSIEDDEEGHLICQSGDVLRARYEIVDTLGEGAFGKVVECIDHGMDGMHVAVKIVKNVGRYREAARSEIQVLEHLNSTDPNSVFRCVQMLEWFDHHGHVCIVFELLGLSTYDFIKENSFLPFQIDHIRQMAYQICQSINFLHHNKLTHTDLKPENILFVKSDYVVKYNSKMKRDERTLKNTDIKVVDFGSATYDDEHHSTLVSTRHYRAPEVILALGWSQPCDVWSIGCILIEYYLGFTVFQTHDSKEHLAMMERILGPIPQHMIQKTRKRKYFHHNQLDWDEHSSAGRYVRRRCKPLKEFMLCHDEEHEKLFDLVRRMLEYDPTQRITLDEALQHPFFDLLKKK
Experimental: as §1

CLK3 = CLK3 (Homo sapiens (Human), UniProt P49761); assay: CLK kinase activity assay (ADP-Glo); type: biochemical
Chain of CLK3 (P49761 whole entry): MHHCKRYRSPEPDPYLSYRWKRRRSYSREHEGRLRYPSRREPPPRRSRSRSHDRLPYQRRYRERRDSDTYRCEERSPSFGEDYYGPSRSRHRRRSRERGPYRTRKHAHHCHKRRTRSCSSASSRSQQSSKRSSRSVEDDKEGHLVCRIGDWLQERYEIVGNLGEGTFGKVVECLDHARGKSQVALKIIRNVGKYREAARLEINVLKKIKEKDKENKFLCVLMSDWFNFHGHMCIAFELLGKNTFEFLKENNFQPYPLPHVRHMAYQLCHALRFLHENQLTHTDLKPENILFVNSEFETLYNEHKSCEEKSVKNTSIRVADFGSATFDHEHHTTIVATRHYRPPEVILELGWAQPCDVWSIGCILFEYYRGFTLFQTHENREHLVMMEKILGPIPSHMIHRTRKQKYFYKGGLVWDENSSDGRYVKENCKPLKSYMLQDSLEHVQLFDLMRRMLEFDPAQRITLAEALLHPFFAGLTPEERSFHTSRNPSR
Experimental: as §1

CLK2 = CLK2 (Homo sapiens (Human), UniProt P49760); assay: CLK kinase activity assay (ADP-Glo); type: biochemical
Chain of CLK2 (P49760 whole entry): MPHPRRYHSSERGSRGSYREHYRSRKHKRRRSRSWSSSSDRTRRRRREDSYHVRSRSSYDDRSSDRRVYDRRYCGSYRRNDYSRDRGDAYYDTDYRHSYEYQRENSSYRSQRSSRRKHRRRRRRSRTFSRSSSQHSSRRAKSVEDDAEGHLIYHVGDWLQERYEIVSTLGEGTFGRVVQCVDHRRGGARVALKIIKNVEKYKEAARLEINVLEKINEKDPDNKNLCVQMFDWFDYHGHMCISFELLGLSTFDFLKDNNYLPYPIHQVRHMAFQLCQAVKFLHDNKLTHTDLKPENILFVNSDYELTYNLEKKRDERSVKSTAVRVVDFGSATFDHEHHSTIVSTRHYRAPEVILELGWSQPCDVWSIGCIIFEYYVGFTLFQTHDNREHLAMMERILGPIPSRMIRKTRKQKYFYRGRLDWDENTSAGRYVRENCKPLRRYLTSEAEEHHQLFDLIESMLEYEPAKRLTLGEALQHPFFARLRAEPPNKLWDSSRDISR
Experimental: as §1

phospho-STAT5 (Y694) [3] = assay: Inhibition of kinase phosphorylation by Western Blot in MOLM-13; type: cell-based; conditions: Homo sapiens; MOLM-13 cells, 4 hour-incubation; read-out: pSTAT5 MOLM-13 IC50
Experimental: (§2) Inhibition of kinase phosphorylation assay was performed by Western Blot using MV-4-11 and MOLM13 cell lines. Cells were plated in 24 well plates at 1 million cells per well and then treated with compounds at different concentrations, starting at 100 nM, 1:4 titration with DMSO as control. After 4 hour-incubation, cells were washed once with ice-cold PBS, and lysed in RIPA lysis buffer with protease and phosphatase inhibitors. The cell lysates were then sonicated and spun down, and 40 μg of proteins were separated by sodium dodecyl sulfate electrophoresis on a 4 to 12% Bis-Tris polyacrylamide gel and transferred onto nitrocellulose membranes using Bio-Rad Trans-Blot Turbo Transfer System (Bio-Rad). Blocking was performed using 3% BSA or 5% Non-fat dry milk (Fisher Scientific) in TBST (Tris-buffered saline containing 0.05% of Tween 20) (Bio-Rad Laboratories, Inc.). The membranes were incubated overnight with anti-phospho-FLT3 (Y589/Y591) (CST #60413), anti-phospho-STAT5 (Y694) (CST #4322), anti-Phospho-p44/42 MAPK (Erk1/2) (T202/Y204) (CST #9101), anti-Phospho-S6 Ribosomal Protein (S235/236) (CST #4858) and anti-β-Actin (CST #8457) each diluted 1000 times in 3% BSA in TBST. Membranes were washed with TBST and then incubated at room temperature for 1 hour with HRP-labeled anti-rabbit IgG polyclonal antibody (CST #7074) diluted 1000 times in 3% BSA. After TBST washing, blots were developed with a chemiluminescence system (SuperSignal West Femto Maximum Sensitivity Substrate, Pierce #34095). Luminescence was detected by LI-COR Odyssey M imaging system and luminescence intensity were quantified using Empiria Studio 2.2 software. Data was analyzed using GraphPad Prism 9 (GraphPad Software, San Diego, CA) to obtain IC50 values.

[4] = system: Phospho-p44/42 MAPK (Erk1/2) (T202/Y204); assay: as above; type: cell-based; conditions: Homo sapiens; MOLM-13 cells, 4 hour-incubation; read-out: pERK MOLM-13 IC50
Experimental: as §2

[5] = system: Phospho-S6 Ribosomal Protein (S235/236); assay: as above; type: cell-based; conditions: Homo sapiens; MOLM-13 cells, 4 hour-incubation; read-out: pS6 MOLM-13 IC50
Experimental: as §2

phospho-STAT5 (Y694) [6] = assay: Inhibition of kinase phosphorylation by Western Blot in MV-4-11; type: cell-based; conditions: Homo sapiens, MV4-11; MV-4-11 cells, 4 hour-incubation; read-out: pSTAT5 MV-4-11 IC50
Experimental: as §2

[7] = system: Phospho-p44/42 MAPK (Erk1/2) (T202/Y204); assay: as above; type: cell-based; conditions: Homo sapiens, MV4-11; MV-4-11 cells, 4 hour-incubation; read-out: pERK MV-4-11 IC50
Experimental: as §2

[8] = system: Phospho-S6 Ribosomal Protein (S235/236); assay: as above; type: cell-based; conditions: Homo sapiens, MV4-11; MV-4-11 cells, 4 hour-incubation; read-out: pS6 MV-4-11 IC50
Experimental: as §2

PIM1 = PIM1 (Homo sapiens (Human), UniProt P11309); assay: HotSpot radiometric kinase assay (Reaction Biology); type: biochemical
Chain of PIM1 (P11309 whole entry): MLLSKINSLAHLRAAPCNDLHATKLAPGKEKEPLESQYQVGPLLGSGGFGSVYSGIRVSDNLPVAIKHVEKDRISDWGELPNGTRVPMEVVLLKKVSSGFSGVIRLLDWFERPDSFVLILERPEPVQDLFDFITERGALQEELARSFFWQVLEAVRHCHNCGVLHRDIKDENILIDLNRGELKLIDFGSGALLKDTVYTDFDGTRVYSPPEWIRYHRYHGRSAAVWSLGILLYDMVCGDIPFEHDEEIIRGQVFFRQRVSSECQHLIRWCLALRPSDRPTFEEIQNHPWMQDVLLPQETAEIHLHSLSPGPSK
Experimental: (§3) Briefly, specific kinase/substrate pairs along with required cofactors were prepared in reaction buffer; 20 mM Hepes pH 7.5, 10 mM MgCl2, 1 mM EGTA, 0.02% Brij35, 0.02 mg/ml BSA, 0.1 mM Na3VO4, 2 mM DTT, 1% DMSO. Compounds were delivered into the reaction, followed ˜20 minutes later by addition of a mixture of ATP (Sigma, St. Louis MO) and ^33P ATP (Perkin Elmer, Waltham MA) to a final concentration of […]. Reactions were carried out at room temperature for 120 min, followed by spotting of the reactions onto P81 ion exchange filter paper (Whatman Inc., Piscataway, NJ). Unbound phosphate was removed by extensive washing of filters in 0.75% phosphoric acid. […] IC50 values and curve fits were obtained using Prism (GraphPad Software).

PIM2 = PIM2 (Homo sapiens (Human), UniProt Q9P1W9); assay: as above; type: biochemical
Chain of PIM2 (Q9P1W9 whole entry): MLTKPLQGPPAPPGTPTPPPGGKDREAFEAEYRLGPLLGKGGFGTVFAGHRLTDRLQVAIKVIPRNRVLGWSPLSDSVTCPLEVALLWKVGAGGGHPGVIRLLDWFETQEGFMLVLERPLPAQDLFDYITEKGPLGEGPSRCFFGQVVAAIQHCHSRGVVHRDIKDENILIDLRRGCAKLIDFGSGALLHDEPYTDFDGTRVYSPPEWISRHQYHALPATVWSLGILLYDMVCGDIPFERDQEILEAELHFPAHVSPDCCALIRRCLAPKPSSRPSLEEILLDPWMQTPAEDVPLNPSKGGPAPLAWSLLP
Experimental: as §3

PIM3 = PIM3 (Homo sapiens (Human), UniProt Q86V86); assay: as above; type: biochemical
Experimental: as §3

FLT3-ITD [9] = molecular target: FLT3-ITD (Homo sapiens, UniProt P36888); assay: as above; type: biochemical
Chain of FLT3-ITD (Homo sapiens, UniProt P36888) (P36888 whole entry, looked up, change not shown): as the sequence (P36888 whole entry, looked up, change not shown) above

Chain of FLT3 (P36888 27-993): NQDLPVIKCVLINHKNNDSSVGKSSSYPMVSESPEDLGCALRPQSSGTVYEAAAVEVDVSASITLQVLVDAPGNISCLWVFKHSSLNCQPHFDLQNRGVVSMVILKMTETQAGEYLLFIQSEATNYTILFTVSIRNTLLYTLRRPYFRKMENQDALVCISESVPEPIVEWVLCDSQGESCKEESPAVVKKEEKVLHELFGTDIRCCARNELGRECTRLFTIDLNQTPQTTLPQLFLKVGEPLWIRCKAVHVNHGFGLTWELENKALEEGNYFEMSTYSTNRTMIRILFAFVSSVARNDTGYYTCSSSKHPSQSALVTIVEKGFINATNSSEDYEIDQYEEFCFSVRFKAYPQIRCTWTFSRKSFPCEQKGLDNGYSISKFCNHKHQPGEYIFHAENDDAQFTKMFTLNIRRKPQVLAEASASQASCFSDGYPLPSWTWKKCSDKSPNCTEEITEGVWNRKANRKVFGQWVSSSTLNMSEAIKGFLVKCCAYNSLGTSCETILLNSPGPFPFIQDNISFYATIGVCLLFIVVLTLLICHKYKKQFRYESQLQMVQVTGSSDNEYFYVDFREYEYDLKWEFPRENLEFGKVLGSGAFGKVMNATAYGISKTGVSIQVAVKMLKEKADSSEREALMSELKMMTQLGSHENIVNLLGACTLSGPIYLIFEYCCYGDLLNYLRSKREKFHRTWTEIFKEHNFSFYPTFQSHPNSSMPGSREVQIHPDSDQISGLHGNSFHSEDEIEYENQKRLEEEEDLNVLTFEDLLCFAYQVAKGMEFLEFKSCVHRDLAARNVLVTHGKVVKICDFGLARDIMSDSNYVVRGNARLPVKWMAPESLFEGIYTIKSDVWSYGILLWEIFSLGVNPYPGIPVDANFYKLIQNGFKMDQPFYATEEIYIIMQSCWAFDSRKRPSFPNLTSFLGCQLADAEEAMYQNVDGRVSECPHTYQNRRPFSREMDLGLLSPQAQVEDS

Compound | pIC50 (FLT3) | pIC50 (FLT3-ITD [2]) | pIC50 (MV-4-11 cells; Homo sapiens, MV4-11) | pIC50 (PIM1) | pIC50 (PIM2) | pIC50 (PIM3) | further results
CN1CCOc2c(cnn2C)-c2ccc3c(c2)c(nn3C2CCCCO2)/C=C/c2c(Br)nn(C)c2C1=O (stereo not drawn) | – | – | – | – | – | – | ring closure, yield of all isomers [1]: 94.8%
CN1CCOc2c(cnn2C)-c2ccc3[nH]nc(c3c2)/C=C/c2c(C#N)nn(C)c2C1=O [Ex. 24, (17E)-8,12,14-trimethyl-13-oxo-2,10,11,12,13,14-hexahydro-8H-3,5-ethenotripyrazolo[3,4-f:3′,4′-j:4″,3″-n][1,4]oxazacyclopentadecine-16-carbonitrile] | 9.64 | 9.32 | 6.85 | – | – | – | pIC50 (CLK1): 9.38; pIC50 (CLK4): 9.23; pIC50 (CLK3): 7.03; pIC50 (CLK2): 9.17
CCc1nc(C(N)=O)c(Nc2ccc(N3CCC(N4CCN(C)CC4)CC3)c(OC)c2)nc1NC1CCOCC1 [Gilteritinib, reference compound] | – | – | – | – | – | – | pIC50 (phospho-STAT5 (Y694) [3]): 8.65; pIC50 [4]: 8.88; pIC50 [5]: 8.10; pIC50 (phospho-STAT5 (Y694) [6]): 8.76; pIC50 [7]: 8.79; pIC50 [8]: 9.04

Now from value to compound, other results behind:

pIC50 (FLT3) | pIC50 (FLT3-ITD [2]) | pIC50 (MV-4-11 cells; Homo sapiens, MV4-11) | pIC50 (PIM1) | pIC50 (PIM2) | pIC50 (PIM3) | Compound | further results
9.61 | – | – | 8.17 | 7.85 | 9.66 | CCc1c2c(nn1C)C(=O)N(C)CCOc1c(cnn1C)-c1ccc3[nH]nc(c3c1)/C=C/2 [compound 7, (17E)-16-ethyl-8,12,15-trimethyl-2,11,12,15-tetrahydro-8H-3,5-ethenotripyrazolo[3,4-f:3′,4′-j:4″,3″-n][1,4]oxazacyclopentadecin-13(10H)-one] | pIC50 (FLT3-ITD [9]): 9.27; pIC50 (MV-4-11 cells): 7.14
– | – | > 9.70 | 8.79 | 8.09 | 10.14 | Cc1nn(C)c2c1/C=C/c1n[nH]c3ccc(cc13)-c1cnn(C)c1OCCN(C)C2=O [compound 8, (17E)-8,12,14,16-tetramethyl-2,11,12,14-tetrahydro-8H-3,5-ethenotripyrazolo[3,4-f:3′,4′-j:4″,3″-n][1,4]oxazacyclopentadecin-13(10H)-one] | –
9.46 | 9.23 | ~9.00 | 7.90 | 6.84 | 8.44 | Cc1c2c(nn1C)C(=O)N(C)CCOc1c(cnn1C)-c1ccc3[nH]nc(c3c1)/C=C/2 [compound 9, (17E)-8,12,15,16-tetramethyl-2,11,12,15-tetrahydro-8H-3,5-ethenotripyrazolo[3,4-f:3′,4′-j:4″,3″-n][1,4]oxazacyclopentadecin-13(10H)-one] | –

Source: US20260070924A1, “INDAZOLE MACROCYCLES AND THEIR USE” (BLOSSOMHILL THERAPEUTICS, INC., priority 2022, published 2026)
